Measured values as given in the NIST ThermoML archive (doi:10.1021/je060082s).
Values joined by “and” are separate entries in the source; they are usually repeats but may differ in a detail not shown here. Identical values can stand only once.

Settings: Liquid; for mass density: 101.33 kPa, Vibrating tube method

CCCCCCCC[n+]1ccn(C)c1.F[B-](F)(F)F [1-methyl-3-octylimidazolium tetrafluoroborate]
Settings	mass density [kg/m3]
273.1 K	1120.96
278.1 K	1117.48
283.1 K	1114.01
288.15 K	1110.55
293.15 K	1107.11
298.15 K	1103.68
303.15 K	1100.24
313.15 K	1093.37
323.15 K	1086.56
333.15 K	1079.83
343.15 K	1073.18
353.15 K	1066.6
363.15 K	1060.08

Settings	viscosity
273.15 K, 100 kPa	2291 mPa·s and 2289 mPa·s
278.15 K, 100 kPa	1477 mPa·s and 1478 mPa·s
283.15 K, 100 kPa	982 mPa·s
288.15 K, 100 kPa	673 mPa·s
293.15 K, 100 kPa	473 mPa·s
298.15 K, 100 kPa	341 mPa·s
298.15 K, 11200 kPa	393 mPa·s
298.15 K, 26200 kPa	475.7 mPa·s
298.15 K, 50500 kPa	638.3 mPa·s
298.15 K, 51500 kPa	645.9 mPa·s
298.15 K, 60800 kPa	720.1 mPa·s
298.15 K, 80200 kPa	902.3 mPa·s
298.15 K, 100200 kPa	1130 mPa·s
298.15 K, 116700 kPa	1359 mPa·s
298.15 K, 117500 kPa	1371 mPa·s
303.15 K, 100 kPa	251 mPa·s
308.15 K, 100 kPa	188.4 mPa·s [middle of 5 runs]
308.15 K, 800 kPa	190.1 mPa·s
308.15 K, 2900 kPa	194.9 mPa·s
308.15 K, 5600 kPa	204.3 mPa·s
308.15 K, 10900 kPa	214.2 mPa·s
308.15 K, 26000 kPa	255.1 mPa·s
308.15 K, 50700 kPa	337.1 mPa·s
308.15 K, 76200 kPa	444 mPa·s
308.15 K, 100300 kPa	571.1 mPa·s
308.15 K, 124400 kPa	731.7 mPa·s
308.15 K, 150200 kPa	945.5 mPa·s
308.15 K, 200100 kPa	1527 mPa·s
313.15 K, 100 kPa	144.1 mPa·s
323.15 K, 100 kPa	88.8 mPa·s and 88.7 mPa·s
323.15 K, 700 kPa	89.2 mPa·s
323.15 K, 4900 kPa	93.5 mPa·s
323.15 K, 10500 kPa	99.3 mPa·s
323.15 K, 25800 kPa	118.2 mPa·s
323.15 K, 50800 kPa	150.1 mPa·s
323.15 K, 75700 kPa	191.2 mPa·s
323.15 K, 100600 kPa	241.8 mPa·s
323.15 K, 125500 kPa	303.1 mPa·s
323.15 K, 149900 kPa	376.5 mPa·s
323.15 K, 175500 kPa	469.8 mPa·s
323.15 K, 199800 kPa	577.3 mPa·s
333.15 K, 100 kPa	57.8 mPa·s
333.15 K, 10800 kPa	64.4 mPa·s
333.15 K, 25700 kPa	74.6 mPa·s
333.15 K, 50300 kPa	94.3 mPa·s
333.15 K, 75600 kPa	118.7 mPa·s
333.15 K, 100500 kPa	147.7 mPa·s
333.15 K, 125300 kPa	182.5 mPa·s
333.15 K, 150200 kPa	224.3 mPa·s
333.15 K, 175100 kPa	274.4 mPa·s
333.15 K, 200000 kPa	334.1 mPa·s
343.15 K, 100 kPa	39.4 mPa·s
348.15 K, 100 kPa	32.8 mPa·s
348.15 K, 300 kPa	32.7 mPa·s
348.15 K, 1600 kPa	33.2 mPa·s
348.15 K, 3100 kPa	33.7 mPa·s
348.15 K, 5400 kPa	34.4 mPa·s
348.15 K, 10200 kPa	36 mPa·s
348.15 K, 25600 kPa	41.4 mPa·s
348.15 K, 50300 kPa	51.5 mPa·s
348.15 K, 75600 kPa	63.6 mPa·s
348.15 K, 100500 kPa	77.7 mPa·s
348.15 K, 125400 kPa	94.3 mPa·s
348.15 K, 150400 kPa	114.3 mPa·s
348.15 K, 175300 kPa	136.8 mPa·s
348.15 K, 200200 kPa	163.6 mPa·s
348.15 K, 224200 kPa	193.7 mPa·s
353.15 K, 100 kPa	28.1 mPa·s

CCCCCCCC[n+]1ccn(C)c1.F[P-](F)(F)(F)(F)F [1-octyl-3-methylimidazolium hexafluorophosphate]
Settings	mass density
273.1 K	1256.13 kg/m3
278.1 K	1252.25 kg/m3
283.1 K	1248.38 kg/m3
288.15 K	1244.52 kg/m3
293.15 K	1240.68 kg/m3
298.15 K	1236.84 kg/m3 and 1236.75 kg/m3
303.15 K	1233.01 kg/m3
313.15 K	1225.34 kg/m3
323.15 K	1217.7 kg/m3 and 1217.68 kg/m3
333.15 K	1210.29 kg/m3
343.15 K	1202.88 kg/m3
353.15 K	1195.49 kg/m3
363.15 K	1188.13 kg/m3

Settings	viscosity
273.15 K, 100 kPa	6410 mPa·s
278.15 K, 100 kPa	3889 mPa·s
283.15 K, 100 kPa	2439 mPa·s
293.15 K, 100 kPa	1065 mPa·s
298.15 K, 100 kPa	734.4 mPa·s and 731.6 mPa·s
298.15 K, 10200 kPa	853.7 mPa·s
298.15 K, 24600 kPa	1041 mPa·s
298.15 K, 39900 kPa	1299 mPa·s
303.15 K, 100 kPa	519.3 mPa·s
308.15 K, 100 kPa	374.6 mPa·s and 370.9 mPa·s
308.15 K, 5500 kPa	404.3 mPa·s
308.15 K, 9900 kPa	430.2 mPa·s
308.15 K, 25600 kPa	531.2 mPa·s
308.15 K, 48400 kPa	716.3 mPa·s
308.15 K, 74900 kPa	1008 mPa·s
313.15 K, 100 kPa	276.8 mPa·s
323.15 K, 100 kPa	158 mPa·s and 159 mPa·s and 159.2 mPa·s
323.15 K, 24800 kPa	217.5 mPa·s
323.15 K, 26300 kPa	222 mPa·s
323.15 K, 49900 kPa	295 mPa·s
323.15 K, 60500 kPa	348.9 mPa·s
323.15 K, 74800 kPa	395 mPa·s
323.15 K, 76000 kPa	404.2 mPa·s
323.15 K, 99700 kPa	524.6 mPa·s
333.15 K, 100 kPa	97 mPa·s and 97.9 mPa·s and 97.8 mPa·s
333.15 K, 13500 kPa	115.2 mPa·s
333.15 K, 30300 kPa	140.6 mPa·s
333.15 K, 50400 kPa	176.2 mPa·s
333.15 K, 75100 kPa	230.4 mPa·s
333.15 K, 100400 kPa	300.7 mPa·s
333.15 K, 125200 kPa	387.3 mPa·s
343.15 K, 100 kPa	63.7 mPa·s [middle of 4 runs]
343.15 K, 10000 kPa	70 mPa·s
343.15 K, 21300 kPa	81 mPa·s
343.15 K, 51800 kPa	112.7 mPa·s
343.15 K, 72900 kPa	138.7 mPa·s
343.15 K, 100300 kPa	182.6 mPa·s
343.15 K, 125900 kPa	233.7 mPa·s
343.15 K, 148800 kPa	296.2 mPa·s
343.15 K, 175900 kPa	378.4 mPa·s
353.15 K, 100 kPa	43 mPa·s
